This is an account of results in US11013726B2 (Arbutus Biopharma Corporation, priority 2016, dated 2021).

In general, EC50 refers to the concentration needed to bring the measured effect to its halfway point.

The assay has as its system HBsAg. The assay can be described thus: HBsAg assay. It is filed as cell-based, hepatitis B virus. Conditions: Hepatitis B virus, HepG2.2.15, 144 h, read-out: sAg EC50, μM, HepG2.2.15 cells, day 6. The method, boiled down: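 HepG2.2.15 cells were treated with serially diluted compounds (0.5% DMSO), with medium and compound renewed after 2-3 days. Secreted HBsAg measured at day 6 by chemiluminescence immunoassay; EC50 from dose-response curves. Viability assessed in parallel by CellTiter-Glo.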
Take `COCCCOc1cc2c(cc1Cl)-c1cc(=O)c(NC(=O)OCc3ccccn3)cn1C(C(C)(C)C)C2` (centres unmarked) [Example 123, Pyridin-2-ylmethyl (6-(tert-butyl)-10-chloro-9-(3-methoxypropoxy)-2-oxo-6,7-dihydro-2H-pyrido[2,1-a]isoquinolin-3-yl)carbamate]: the 50% effective concentration (EC50) amounted to 2.4 µM.

Take `COCCCOc1cc2c(cc1Cl)-c1cc(=O)c(NC(=O)OCC(C)(C)C)cn1C(C(C)(C)C)C2` (centres unmarked) [Example 124, Neopentyl (6-(tert-butyl)-10-chloro-9-(3-methoxypropoxy)-2-oxo-6,7-dihydro-2H-pyrido[2,1-a]isoquinolin-3-yl)carbamate]: the 50% effective concentration (EC50) was found to be 16 µM.

In the case of `COCCCOc1cc2c(cc1Cl)-c1cc(=O)c(N3C(=O)CCC3=O)cn1C(C(C)(C)C)C2` (centres unmarked) [Example 125, 1-[6-Tert-butyl-10-chloro-9-(3-methoxypropoxy)-2-oxo-6H,7H-pyrido[2,1-a]isoquinolin-3-yl]pyrrolidine-2,5-dione], the EC50 amounted to 12 µM.

For `COCCCOc1cc2c(cc1Cl)-c1cc(=O)c(NC(=O)NC(C)(C)C)cn1C(C(C)(C)C)C2` (centres unmarked) [Example 126, 3-Tert-butyl-1-[6-tert-butyl-10-chloro-9-(3-methoxypropoxy)-2-oxo-6H,7H-pyrido[2,1-a]isoquinolin-3-yl]urea], the EC50 amounted to 6.1 µM.

Regarding `COCCCOc1cc2c(cc1Cl)-c1cc(=O)c(NS(=O)(=O)CC(F)(F)F)cn1C(C(C)(C)C)C2` (centres unmarked) [Example 127, N-[6-Tert-butyl-10-chloro-9-(3-methoxypropoxy)-2-oxo-6H,7H-pyrido[2,1-a]isoquinolin-3-yl]-2,2,2-trifluoroethanesulfonamide], the 50% effective concentration (EC50) was determined as 15 µM.

As to `COCCCOc1cc2c(cc1Cl)-c1cc(=O)c(NS(=O)(=O)C(F)(F)F)cn1C(C(C)(C)C)C2` (centres unmarked) [Example 128, N-(6-(Tert-butyl)-10-chloro-9-(3-methoxypropoxy)-2-oxo-6,7-dihydro-2H-pyrido[2,1-a]isoquinolin-3-yl)-1,1,1-trifluoromethanesulfonamide], the half-maximal effective concentration (EC50) was found to be 4.7 µM.

Turning to `COCCCOc1cc2c(cc1Cl)-c1cc(=O)c(Nc3ncccn3)cn1C(C(C)(C)C)C2` (centres unmarked) [Example 129, 6-(Tert-butyl)-10-chloro-9-(3-methoxypropoxy)-3-(pyrimidin-2-ylamino)-6,7-dihydro-2H-pyrido[2,1-a]isoquinolin-2-one], the EC50 was 5.9 µM.

Regarding `COCCCOc1cc2c(cc1Cl)-c1cc(=O)c(N(c3ncccn3)c3ncccn3)cn1C(C(C)(C)C)C2` (centres unmarked) [Example 130, 6-(Tert-butyl)-10-chloro-3-(di(pyrimidin-2-yl)amino)-9-(3-methoxypropoxy)-6,7-dihydro-2H-pyrido[2,1-a]isoquinolin-2-one], the concentration for a half-maximal effect (EC50) came out at 0.91 µM.

Consider `COCCCOc1cc2c(cc1Cl)-c1cc(=O)c(I)cn1C(C(C)(C)C)C2` (centres unmarked) [Example 131, 6-Tert-butyl-10-chloro-3-iodo-9-(3-methoxypropoxy)-6H,7H-pyrido[2,1-a]isoquinolin-2-one], for which the EC50 stood at 2.4 µM.

Consider `COCCCOc1cc2c(cc1Cl)-c1cc(=O)c(-c3ncccn3)cn1C(C(C)(C)C)C2` (centres unmarked) [Example 132, 6-Tert-butyl-10-chloro-9-(3-methoxypropoxy)-3-(pyrimidin-2-yl)-6H,7H-pyrido[2,1-a]isoquinolin-2-one], for which the EC50 was determined as 0.078 µM.

On to `COCCCOc1cc2c(cc1Cl)-c1cc(=O)c(-c3ccccn3)cn1C(C(C)(C)C)C2` (centres unmarked) [Example 133, 6-(Tert-butyl)-10-chloro-9-(3-methoxypropoxy)-3-(pyridin-2-yl)-6,7-dihydro-2H-pyrido[2,1-a]isoquinolin-2-one], for which the EC50 was 4 µM.

With `COCCCOc1cc2c(cc1Cl)-c1cc(=O)c(NC(=O)OC(C)(C)C)cn1[C@H](C(C)C)CO2` [Example 134, Tert-butyl (R)-(2-chloro-7-isopropyl-3-(3-methoxypropoxy)-11-oxo-6,7-dihydro-11H-benzo[f]pyrido[1,2-d][1,4]oxazepin-10-yl)carbamate], the concentration giving a half-maximal response (EC50) was determined as 45 µM.

For the compound `COCCCOc1cc2c(cc1Cl)-c1cc(=O)c(-c3ncccn3)cn1[C@H](C(C)C)CO2` [Example 135, (R)-2-Chloro-7-isopropyl-3-(3-methoxypropoxy)-10-(pyrimidin-2-yl)-6,7-dihydro-11H-benzo[f]pyrido[1,2-d][1,4]oxazepin-11-one], the concentration giving a half-maximal response (EC50) stood at 2 µM.

Regarding `COCCCOc1cc2c(cc1Cl)-c1cc(=O)ccn1[C@H](C(C)C)CO2` [Example 136, (R)-2-Chloro-7-isopropyl-3-(3-methoxypropoxy)-6,7-dihydro-11H-benzo[f]pyrido[1,2-d][1,4]oxazepin-11-one], the EC50 was found to be 0.57 µM.

For the compound `COCCCOc1cc2c(cc1Cl)-c1cc(=O)c(-c3ncccc3C)cn1[C@H](C(C)C)CO2` [Example 137, (R)-2-Chloro-7-isopropyl-3-(3-methoxypropoxy)-10-(3-methylpyridin-2-yl)-6,7-dihydro-11H-benzo[f]pyrido[1,2-d][1,4]oxazepin-11-one], the EC50 stood at 10 µM.

Take `COCCCOc1cc2c(cc1Cl)-c1cc(=O)c(-c3ccccn3)cn1[C@H](C(C)C)CO2` [Example 138, (R)-2-Chloro-7-isopropyl-3-(3-methoxypropoxy)-10-(pyridin-2-yl)-6,7-dihydro-11H-benzo[f]pyrido[1,2-d][1,4]oxazepin-11-one]: the EC50 is 12 µM.

Consider `COCCCOc1cc2c(cc1Cl)-c1cc(=O)c(OC)cn1[C@H](C(C)C)CO2` [Example 139, (R)-2-Chloro-7-isopropyl-10-methoxy-3-(3-methoxypropoxy)-6,7-dihydro-11H-benzo[f]pyrido[1,2-d][1,4]oxazepin-11-one], for which the 50% effective concentration (EC50) was 14 µM.

Consider `COCCCOc1cc2c(cc1Cl)-c1cc(=O)c(B(O)O)cn1[C@H](C(C)C)CO2` [Example 140, (R)-(2-Chloro-7-isopropyl-3-(3-methoxypropoxy)-11-oxo-6,7-dihydro-11H-benzo[f]pyrido[1,2-d][1,4]oxazepin-10-yl)boronic acid], for which the EC50 was 2.1 µM.

For `COCCCOc1cc2c(cc1Cl)-c1cc(=O)c(N(C)C(=O)OC(C)(C)C)cn1[C@H](C(C)C)CO2` [Example 141, Tert-butyl (R)-(2-chloro-7-isopropyl-3-(3-methoxypropoxy)-11-oxo-6,7-dihydro-11H-benzo[f]pyrido[1,2-d][1,4]oxazepin-10-yl)(methyl)carbamate], the EC50 was 1 µM.

`COCCCOc1cc2c(nc1OC)-c1cc(=O)c(C(C)=O)cn1C(C(C)C)C2` (centres unmarked) [Example 142, 9-Acetyl-6-isopropyl-2-methoxy-3-(3-methoxypropoxy)-5,6-dihydro-10H-pyrido[1,2-h][1,7]naphthyridin-10-one]: the EC50 was found to be 0.62 µM.

As to `COCCCOc1cc2c(nc1OC)-c1cc(=O)c(C(C)(C)O)cn1C(C(C)C)C2` (centres unmarked) [Example 143, 9-(2-Hydroxypropan-2-yl)-6-isopropyl-2-methoxy-3-(3-methoxypropoxy)-5,6-dihydro-10H-pyrido[1,2-h][1,7]naphthyridin-10-one], the half-maximal effective concentration (EC50) was determined as 0.91 µM.

Take `COCCCOc1cc2c(cc1Cl)-c1cc(=NO)c(C(=O)OC)cn1C(C(C)(C)C)C2` (centres unmarked) [Example 144, Methyl 6-tert-butyl-10-chloro-2-(hydroxyimino)-9-(3-methoxypropoxy)-6H,7H-pyrido[2,1-a]isoquinoline-3-carboxylate]: the EC50 was 0.17 µM.

`COCCCOc1cc2c(cc1Cl)-c1cc(=NO)c(C(=O)O)cn1C(C(C)(C)C)C2` (centres unmarked) [Example 145, 6-Tert-butyl-10-chloro-2-(hydroxyimino)-9-(3-methoxypropoxy)-6H,7H-pyrido[2,1-a]isoquinoline-3-carboxylic acid]: the concentration giving a half-maximal response (EC50) is 0.15 µM.

Take `COCCCOc1cc2c(cc1Cl)-c1cc3noc(=O)c-3cn1C(C(C)(C)C)C2` (centres unmarked) [Example 146, 6-(Tert-butyl)-2-chloro-3-(3-methoxypropoxy)-5,6-dihydro-9H-isoxazolo[3′,4′:4,5]pyrido[2,1-a]isoquinolin-9-one]: the 50% effective concentration (EC50) stood at 0.031 µM.

As for `CN=c1cc2n(cc1C(=O)O)C(C(C)C)Cc1cc(OCCCOC)c(OC)cc1-2` (centres unmarked) [Example 147], the 50% effective concentration (EC50) came to 0.65 µM.

Take `COCCCOc1cc2c(cc1OC)-c1cc(=NOC)c(C(=O)OC)cn1C(C(C)C)C2` (centres unmarked) [Example 148, Methyl 6-isopropyl-10-methoxy-2-(methoxyimino)-9-(3-methoxypropoxy)-6,7-dihydro-2H-pyrido[2,1-a]isoquinoline-3-carboxylate]: the 50% effective concentration (EC50) was 13 µM.

As to `COCCCOc1cc2c(cc1OC)-c1cc(=NOC)c(C(=O)O)cn1C(C(C)C)C2` (centres unmarked) [Example 149], the concentration giving a half-maximal response (EC50) came out at 7.4 µM.

As for `CCOC(=O)c1cn2c(cc1=NO)-c1cc(Cl)c(OC)cc1OCC2C(C)C` (centres unmarked) [Example 150, Ethyl 2-chloro-11-(hydroxyimino)-7-isopropyl-3-methoxy-6,7-dihydro-11H-benzo[f]pyrido[1,2-d][1,4]oxazepine-10-carboxylate], the EC50 was 24 µM.

Take `COc1cc2c(cc1Cl)-c1cc3noc(=O)c-3cn1C(C(C)C)CO2` (centres unmarked) [Example 151, 2-Chloro-7-isopropyl-3-methoxy-6,7-dihydro-10H-benzo[f]isoxazolo[3′,4′:4,5]pyrido[1,2-d][1,4]oxazepin-10-one]: the EC50 came out at 13 µM.

Consider `COCCCOc1cc2c(nc1OC)-c1cc(=NN)c(C(=O)NN)cn1[C@H](C(C)C)C2` [Example 152, (6S,10)-10-Hydrazinylidene-6-isopropyl-2-methoxy-3-(3-methoxypropoxy)-5H,6H-pyrido[1,2-h]1,7-naphthyridine-9-carbohydrazide], for which the EC50 came to 0.03 µM.

With `COCCCOc1cc2c(nc1OC)-c1cc3n[nH]c(=O)c-3cn1[C@H](C(C)C)C2` [Example 153, (S)-6-Isopropyl-2-methoxy-3-(3-methoxypropoxy)-5,10-dihydropyrazolo[3′,4′:4,5]pyrido[1,2-h][1,7]naphthyridin-9(6H)-one], the 50% effective concentration (EC50) was 0.23 µM.

Turning to `COCCCOc1cc2c(nc1OC)-c1cc(=O)c(C(=O)NNC(C)=O)cn1[C@H](C(C)C)C2` [Example 154, (6S)—N′-Acetyl-6-isopropyl-2-methoxy-3-(3-methoxypropoxy)-10-oxo-5H,6H-pyrido[1,2-h]1,7-naphthyridine-9-carbohydrazide], the EC50 amounted to 0.029 µM.
